The source of these data is ChEMBL document CHEMBL1151574, “Convergent syntheses and cytostatic properties of 2-chloro-2-deoxy-2-fluoroadenosine and its N7-isomer” (1995).

Calls of active or inactive are those of the source. The calls are words filed in the database; no cut-off is given here.

The subject of assay [1] is IM-9. Kind of assay: In vitro toxicity against myeloma cell line (IM-9) at a concentration of 0.01 ug/ml. The class given is functional, Homo sapiens.
For assay [2], the system named is IM-9. Kind of assay: In vitro toxicity against myeloma cell line (IM-9) at a concentration of 0.1 ug/ml. The class given is functional, Homo sapiens.
Assay [3] relates to IM-9. Kind of assay: In vitro toxicity against myeloma cell line (IM-9) at a concentration of 10 ug/ml. The class given is functional, Homo sapiens.
Assay [4] deals with MOLT-3. The assay is described as follows: In vitro toxicity against acute T cell leukemia (MOLT-3) at a concentration of 0.01 ug/ml. The class given is functional, Homo sapiens.
The subject of assay [5] is MOLT-3. The assay is described as follows: In vitro toxicity against acute T cell leukemia (MOLT-3) at a concentration of 0.1 ug/ml. The class given is functional, Homo sapiens.
Assay [6] concerns MOLT-3. The assay is described as follows: In vitro toxicity against acute T cell leukemia (MOLT-3) at a concentration of 1.0 ug/ml. The class given is functional, Homo sapiens.
Assay [7] has as its system MOLT-3. The assay is described as follows: In vitro toxicity against acute T cell leukemia (MOLT-3) at a concentration of 10 ug/ml. The class given is functional, Homo sapiens.
For assay [8], the system named is PHA-Ly. Kind of assay: In vitro toxicity against phytohemagglutininin-stimulated peripheral blood lymphocytes (PHA-Ly) at a concentration of 0.01 ug/ml. The class given is functional, Homo sapiens.
Assay [9] concerns PHA-Ly. Kind of assay: In vitro toxicity against phytohemagglutininin-stimulated peripheral blood lymphocytes (PHA-Ly) at a concentration of 0.1 ug/ml. The class given is functional, Homo sapiens.
Assay [10] relates to PHA-Ly. Kind of assay: In vitro toxicity against phytohemagglutininin-stimulated peripheral blood lymphocytes (PHA-Ly) at a concentration of 1.0 ug/ml. The class given is functional, Homo sapiens.
Assay [11] relates to PHA-Ly. The assay is described as follows: In vitro toxicity against phytohemagglutininin-stimulated peripheral blood lymphocytes (PHA-Ly) at a concentration of 10 ug/ml. The class given is functional, Homo sapiens.
In assay [12] the test system is Raji. Kind of assay: In vitro toxicity against Burkitt's lymphoma (B-cell) (Raji) at a concentration of 0.01 ug/ml. The class given is functional, Homo sapiens.
Assay [13] has as its system Raji. Kind of assay: In vitro toxicity against Burkitt's lymphoma (B-cell) (Raji) at a concentration of 0.1 ug/ml. The class given is functional, Homo sapiens.
Assay [14] concerns Raji. The assay is described as follows: In vitro toxicity against Burkitt's lymphoma (B-cell) (Raji) at a concentration of 1.0 ug/ml. The class given is functional, Homo sapiens.
In assay [15] the test system is Raji. Kind of assay: In vitro toxicity against Burkitt's lymphoma (B-cell) (Raji) at a concentration of 10 ug/ml. The class given is functional, Homo sapiens.
For assay [16], the system named is U-937. Kind of assay: In vitro toxicity against histocytic lymphoma (U-937) at a concentration of 0.01 ug/ml. The class given is functional, Homo sapiens.
Assay [17] deals with U-937. The assay is described as follows: In vitro toxicity against histocytic lymphoma (U-937) at a concentration of 0.1 ug/ml. The class given is functional, Homo sapiens.
For assay [18], the system named is U-937. The assay is described as follows: In vitro toxicity against histocytic lymphoma (U-937) at a concentration of 1.0 ug/ml. The class given is functional, Homo sapiens.
Assay [19] concerns U-937. Kind of assay: In vitro toxicity against histocytic lymphoma (U-937) at a concentration of 10 ug/ml. The class given is functional, Homo sapiens.
The test system of assay [20] is IM-9. Kind of assay: In vitro toxicity against myeloma cell line (IM-9) at a concentration of 1.0 ug/ml. The class given is functional, Homo sapiens.
Assay [21] relates to IM-9. The assay is described as follows: In vitro toxicity against myeloma cell line (IM-9) at a concentration of 10 ug/ml; No significant toxicity. The class given is functional, cell-based. As to conditions: Homo sapiens.
For assay [22], the system named is MOLT-3. The assay is described as follows: In vitro toxicity against acute T cell leukemia (MOLT-3) at a concentration of 10 ug/ml; No significant toxicity. The class given is functional, cell-based. As to conditions: Homo sapiens.
In assay [23] the test system is PHA-Ly. Kind of assay: In vitro toxicity against phytohemagglutininin-stimulated peripheral blood lymphocytes (PHA-Ly) at a concentration of 10 ug/ml; No significant toxicity. The class given is functional, cell-based. As to conditions: Homo sapiens.
For assay [24], the system named is Raji. Kind of assay: In vitro toxicity against Burkitt's lymphoma (B-cell) (Raji) at a concentration of 10 ug/ml; No significant toxicity. The class given is functional, cell-based. As to conditions: Homo sapiens.
Assay [25] has as its system U-937. Kind of assay: In vitro toxicity against histocytic lymphoma (U-937) at a concentration of 10 ug/ml; No significant toxicity. The class given is functional, cell-based. As to conditions: Homo sapiens.

Regarding `Nc1nc(Cl)nc2c1ncn2[C@@H]1O[C@H](CO)C(O)[C@H]1F` (single isomer, unassigned), the Toxicity in the assay with IM-9 [1] is reported as 108%; in the assay on IM-9 [2], 110%; in the assay on IM-9 [3], 5.7%; in the assay with MOLT-3 [4], 106%; in the assay on MOLT-3 [5] it was 79%; in the assay with MOLT-3 [6], 3.3%. Also, the Toxicity is 2.6% in the assay on MOLT-3 [7]; 98% in the assay on PHA-Ly [8]; 90% in the assay on PHA-Ly [9]; 17% in the assay on PHA-Ly [10]; 4% in the assay on PHA-Ly [11]; 103% in the assay with Raji [12]. The Toxicity with Raji [13] is 68%; with Raji [14] it was 9.1%; with Raji [15], 2.5%; with U-937 [16], 99%; in the assay with U-937 [17] it was 70%; in the assay with U-937 [18] it was 4.9%. Besides, the results for the Toxicity with U-937 [19] and in the assay with IM-9 [20] were 1.8% and 19%, respectively.

Take `Nc1nc(Cl)nc2ncn([C@@H]3O[C@H](CO)C(O)[C@H]3F)c12` (single isomer, unassigned): the Toxicity entry with IM-9 [21], in the assay on MOLT-3 [22], in the assay with PHA-Ly [23], in the assay on Raji [24] and in the assay on U-937 [25] was “inactive” throughout.
